Test results from ChEMBL document CHEMBL1909046, “DrugMatrix in vitro pharmacology data”.
pIC50, pKi: −log10 of the molar value.

Columns and labels:
[1] = molecular target: 5-hydroxytryptamine receptor 1B (Rattus norvegicus, UniProt P28564); type: cell membranes, Wistar, Cerebral cortex, Membrane; note: in other assays of this panel Not Active means under 50% inhibition at 10 µM
Adenosine receptor A1 = molecular target: T1, Adenosine receptor A1 (Homo sapiens, UniProt P30542); type: cell membranes, CHO, Membrane; settings: cho;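 note: radioligand binding assay at the adenosine A1 receptor, with DPCPX serving as the labelled ligand; in other assays of this panel Not Active means under 50% inhibition at 10 µM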
T1 sequence (P30542 whole entry): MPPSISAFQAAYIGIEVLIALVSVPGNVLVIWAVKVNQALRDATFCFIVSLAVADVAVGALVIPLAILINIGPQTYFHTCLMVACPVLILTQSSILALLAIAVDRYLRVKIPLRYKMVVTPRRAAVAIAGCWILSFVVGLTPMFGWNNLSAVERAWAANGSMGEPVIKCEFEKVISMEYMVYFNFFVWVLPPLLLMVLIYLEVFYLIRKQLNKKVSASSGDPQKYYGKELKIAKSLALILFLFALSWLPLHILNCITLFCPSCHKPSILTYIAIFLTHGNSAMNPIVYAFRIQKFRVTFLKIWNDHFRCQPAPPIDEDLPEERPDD

[2] = DRUGMATRIX: Phosphodiesterase PDE3 enzyme inhibition (substrate: [3H]cAMP + cAMP); type: tissue-based, Homo sapiens; settings: platelet, Not Active = under 50% inhibition at 10 µM
D(3) dopamine receptor = D(3) dopamine receptor (Homo sapiens, UniProt P35462); test: DRUGMATRIX: Dopamine D3 radioligand binding (ligand: [3H] Spiperone); type: cell membranes, CHO, Membrane; settings: cho
D(3) dopamine receptor, sequence (P35462 whole entry): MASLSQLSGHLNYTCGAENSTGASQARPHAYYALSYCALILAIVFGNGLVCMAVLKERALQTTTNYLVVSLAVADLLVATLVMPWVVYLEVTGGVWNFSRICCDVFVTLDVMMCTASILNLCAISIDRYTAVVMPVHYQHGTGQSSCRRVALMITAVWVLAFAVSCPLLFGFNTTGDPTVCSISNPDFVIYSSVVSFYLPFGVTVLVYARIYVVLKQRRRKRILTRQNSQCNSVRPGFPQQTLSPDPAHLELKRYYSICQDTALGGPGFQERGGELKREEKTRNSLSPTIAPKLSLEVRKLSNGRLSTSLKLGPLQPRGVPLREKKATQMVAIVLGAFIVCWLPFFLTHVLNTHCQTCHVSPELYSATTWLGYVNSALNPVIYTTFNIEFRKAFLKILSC

Substance-P receptor = Substance-P receptor (Homo sapiens, UniProt P25103); type: cell membranes, CHO, Membrane; settings: cho; note: in other assays of this panel Not Active means under 50% inhibition at 10 µM
Substance-P receptor, sequence (P25103 whole entry): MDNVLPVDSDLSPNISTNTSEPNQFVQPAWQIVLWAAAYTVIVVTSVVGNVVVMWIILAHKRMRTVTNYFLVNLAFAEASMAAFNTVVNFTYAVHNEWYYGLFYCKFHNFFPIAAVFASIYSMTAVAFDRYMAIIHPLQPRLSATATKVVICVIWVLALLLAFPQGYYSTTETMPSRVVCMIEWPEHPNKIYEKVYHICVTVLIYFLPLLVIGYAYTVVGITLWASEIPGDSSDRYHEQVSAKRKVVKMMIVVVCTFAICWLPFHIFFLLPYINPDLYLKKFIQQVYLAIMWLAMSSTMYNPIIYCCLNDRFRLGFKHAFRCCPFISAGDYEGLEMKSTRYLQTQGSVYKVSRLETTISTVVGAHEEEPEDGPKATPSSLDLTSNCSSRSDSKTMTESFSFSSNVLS

[3] = DRUGMATRIX: Platelet-Derived Growth Factor (PDGF) radioligand binding (ligand: [125I] PDGF); type: cell-based; settings: nih3t3; Not Active = under 50% inhibition at 10 µM
Estrogen receptor = molecular target: T2, Estrogen receptor (Homo sapiens, UniProt P03372); settings: sf9; note: in other assays of this panel Not Active means under 50% inhibition at 10 µM
T2 sequence (P03372 whole entry): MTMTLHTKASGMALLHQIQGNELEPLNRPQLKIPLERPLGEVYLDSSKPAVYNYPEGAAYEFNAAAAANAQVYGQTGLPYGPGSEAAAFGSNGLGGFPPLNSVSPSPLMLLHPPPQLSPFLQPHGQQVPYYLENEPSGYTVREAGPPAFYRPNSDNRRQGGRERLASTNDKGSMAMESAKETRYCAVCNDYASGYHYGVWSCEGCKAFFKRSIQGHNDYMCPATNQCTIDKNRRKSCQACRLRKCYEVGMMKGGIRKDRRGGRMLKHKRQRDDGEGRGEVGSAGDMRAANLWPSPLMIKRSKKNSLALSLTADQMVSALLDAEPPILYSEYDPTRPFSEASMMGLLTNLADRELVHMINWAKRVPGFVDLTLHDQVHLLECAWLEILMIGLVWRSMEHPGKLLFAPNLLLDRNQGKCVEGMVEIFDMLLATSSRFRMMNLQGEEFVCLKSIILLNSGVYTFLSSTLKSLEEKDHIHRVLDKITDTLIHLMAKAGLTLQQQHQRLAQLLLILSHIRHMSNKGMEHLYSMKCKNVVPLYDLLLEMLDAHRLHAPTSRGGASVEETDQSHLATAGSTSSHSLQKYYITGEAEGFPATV

[4] = molecular target: T3, C-X-C chemokine receptor type 2 (Homo sapiens, UniProt P25025); type: cell membranes, Membrane; settings: cho-k1; note: in other assays of this panel Not Active means under 50% inhibition at 10 µM
T3 sequence (P25025 whole entry): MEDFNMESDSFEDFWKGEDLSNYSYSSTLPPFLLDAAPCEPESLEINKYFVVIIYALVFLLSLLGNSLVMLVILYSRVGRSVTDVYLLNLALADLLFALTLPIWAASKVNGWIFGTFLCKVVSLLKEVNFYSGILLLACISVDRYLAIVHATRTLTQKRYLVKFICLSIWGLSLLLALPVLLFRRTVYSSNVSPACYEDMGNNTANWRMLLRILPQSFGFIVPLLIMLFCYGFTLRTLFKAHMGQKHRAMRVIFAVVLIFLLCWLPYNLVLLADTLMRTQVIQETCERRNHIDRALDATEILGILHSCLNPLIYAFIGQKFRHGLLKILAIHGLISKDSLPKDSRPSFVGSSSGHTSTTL

[5] = DRUGMATRIX: GABAA, Chloride Channel, TBOB radioligand binding (ligand: [3H] TBOB); type: cell membranes, Rattus norvegicus, Wistar, Cerebral cortex, Membrane; settings: Not Active = under 50% inhibition at 10 µM
[6] = DRUGMATRIX: Glutamate, NMDA, Agonism radioligand binding (ligand: [3H] CGP-39653); type: cell membranes, Rattus norvegicus, Wistar, Cerebral cortex, Membrane; settings: Not Active = under 50% inhibition at 10 µM
Cytochrome P450 3A4 = Cytochrome P450 3A4 (Homo sapiens, UniProt P08684); settings: bti-tn-5b1-4; note: in other assays of this panel Not Active means under 50% inhibition at 10 µM
Cytochrome P450 3A4, sequence (P08684 whole entry): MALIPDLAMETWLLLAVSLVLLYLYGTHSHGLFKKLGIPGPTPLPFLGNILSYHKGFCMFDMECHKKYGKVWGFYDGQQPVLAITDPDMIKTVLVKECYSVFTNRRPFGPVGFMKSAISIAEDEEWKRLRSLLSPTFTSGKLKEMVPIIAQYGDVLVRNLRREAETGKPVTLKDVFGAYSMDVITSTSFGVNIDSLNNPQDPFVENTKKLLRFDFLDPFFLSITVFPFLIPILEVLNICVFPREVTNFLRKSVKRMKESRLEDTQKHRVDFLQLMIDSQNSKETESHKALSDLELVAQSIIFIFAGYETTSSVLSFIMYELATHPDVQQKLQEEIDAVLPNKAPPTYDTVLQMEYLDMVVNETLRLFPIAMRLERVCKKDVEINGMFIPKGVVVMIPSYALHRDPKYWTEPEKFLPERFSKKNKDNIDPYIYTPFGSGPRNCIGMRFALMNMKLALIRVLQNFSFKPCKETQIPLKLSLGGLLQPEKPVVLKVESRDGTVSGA

[7] = molecular target: Aldo-keto reductase family 1 member B1 (Rattus norvegicus, UniProt P07943); type: tissue-based, Lens of camera-type eye
Melanocortin receptor 4 = Melanocortin receptor 4 (Homo sapiens, UniProt P32245); type: cell membranes, Membrane; settings: hek293; note: in other assays of this panel Not Active means under 50% inhibition at 10 µM
Melanocortin receptor 4, sequence (P32245 whole entry): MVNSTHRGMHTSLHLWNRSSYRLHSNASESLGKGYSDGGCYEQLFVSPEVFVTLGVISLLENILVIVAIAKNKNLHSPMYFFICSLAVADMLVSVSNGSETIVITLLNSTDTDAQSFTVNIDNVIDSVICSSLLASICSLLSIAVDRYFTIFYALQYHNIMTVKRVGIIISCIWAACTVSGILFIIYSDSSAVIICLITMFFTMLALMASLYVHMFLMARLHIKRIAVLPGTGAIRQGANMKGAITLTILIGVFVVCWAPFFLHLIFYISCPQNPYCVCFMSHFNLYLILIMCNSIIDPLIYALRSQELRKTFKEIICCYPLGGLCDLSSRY

Histamine H2 receptor = Histamine H2 receptor (Homo sapiens, UniProt P25021); type: cell membranes, CHO-K1, Membrane; settings: cho-k1; note: in other assays of this panel Not Active means under 50% inhibition at 10 µM
Histamine H2 receptor, sequence (P25021 whole entry): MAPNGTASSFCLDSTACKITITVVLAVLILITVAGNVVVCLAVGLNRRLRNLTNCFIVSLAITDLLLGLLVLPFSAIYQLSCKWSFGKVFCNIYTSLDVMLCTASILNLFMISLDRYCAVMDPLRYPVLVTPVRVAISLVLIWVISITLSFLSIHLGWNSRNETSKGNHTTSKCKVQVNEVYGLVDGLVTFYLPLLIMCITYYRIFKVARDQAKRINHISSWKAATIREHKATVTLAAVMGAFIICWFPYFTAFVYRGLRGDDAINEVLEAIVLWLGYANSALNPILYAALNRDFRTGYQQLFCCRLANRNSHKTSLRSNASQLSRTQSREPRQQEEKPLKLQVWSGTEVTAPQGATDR

[8] = DRUGMATRIX: Imidazoline I2, Central radioligand binding (ligand: [3H] Idazoxan); type: cell membranes, Rattus norvegicus, Wistar, Cerebral cortex, Membrane; settings: Not Active = under 50% inhibition at 10 µM
[9] = molecular target: T4, Neuropeptide Y receptor type 2 (Homo sapiens, UniProt P49146); type: cell membranes, Membrane; settings: kan-ts; note: in other assays of this panel Not Active means under 50% inhibition at 10 µM
T4 sequence (P49146 whole entry): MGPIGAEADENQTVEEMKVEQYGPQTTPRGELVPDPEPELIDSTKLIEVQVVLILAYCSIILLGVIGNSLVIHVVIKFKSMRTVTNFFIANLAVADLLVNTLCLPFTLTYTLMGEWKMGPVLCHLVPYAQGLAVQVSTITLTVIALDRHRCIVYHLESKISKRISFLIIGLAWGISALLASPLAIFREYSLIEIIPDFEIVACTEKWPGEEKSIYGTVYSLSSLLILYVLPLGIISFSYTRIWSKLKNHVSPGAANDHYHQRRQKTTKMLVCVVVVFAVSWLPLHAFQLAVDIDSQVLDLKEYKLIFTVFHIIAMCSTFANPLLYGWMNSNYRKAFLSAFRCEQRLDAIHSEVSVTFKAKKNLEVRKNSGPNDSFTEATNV

[10] = DRUGMATRIX: Glutamate, NMDA, Phencyclidine radioligand binding (ligand: [3H] TCP); type: cell membranes, Rattus norvegicus, Wistar, Cerebral cortex, Membrane; settings: Not Active = under 50% inhibition at 10 µM

5-hydroxytryptamine receptor 1B, sequence (P28564 whole entry): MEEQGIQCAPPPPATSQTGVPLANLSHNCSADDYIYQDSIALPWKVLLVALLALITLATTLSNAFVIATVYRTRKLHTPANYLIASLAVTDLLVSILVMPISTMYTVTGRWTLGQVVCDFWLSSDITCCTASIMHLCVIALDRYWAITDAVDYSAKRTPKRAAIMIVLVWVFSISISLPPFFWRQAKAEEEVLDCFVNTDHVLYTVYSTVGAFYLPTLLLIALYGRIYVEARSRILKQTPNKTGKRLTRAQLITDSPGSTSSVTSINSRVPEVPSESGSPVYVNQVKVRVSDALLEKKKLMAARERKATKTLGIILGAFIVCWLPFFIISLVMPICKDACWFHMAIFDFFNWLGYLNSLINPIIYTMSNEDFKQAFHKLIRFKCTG

Structure (SMILES) | IC50 [1] | IC50 (Adenosine receptor A1) | IC50 (D(3) dopamine receptor) | IC50 (Substance-P receptor) | IC50 [3] | Ki [3] | IC50 (Estrogen receptor) | IC50 [4] | IC50 [6] | Ki [6] | IC50 (Cytochrome P450 3A4) | Ki (Cytochrome P450 3A4) | IC50 [7] | IC50 (Melanocortin receptor 4) | IC50 (Histamine H2 receptor) | IC50 [8] | Ki [8] | IC50 [9] | IC50 [10] | Ki [10] | other results
C=C(C)[C@@H]1[C@H]2OC(=O)[C@@H]1[C@]1(O)C[C@H]3O[C@]34C(=O)O[C@H]2[C@]14C [PICROTOXININ] | Not Active | Not Active | Not Active | Not Active | Not Active | Not Active | Not Active | Not Active | Not Active | Not Active | Not Active | Not Active | Not Active | Not Active | Not Active | Not Active | Not Active | Not Active | Not Active | Not Active | IC50 [2]: Not Active; Ki [2]: Not Active; pIC50 ([5]; read-out: IC50): 6.43; pKi ([5]; read-out: Ki): 6.48
CC(=O)[C@@]1(O)CC[C@H]2[C@@H]3C[C@H](C)C4=CC(=O)C=C[C@]4(C)[C@@]3(F)[C@@H](O)C[C@@]21C [FLUOROMETHOLONE] | Not Active | Not Active | Not Active | Not Active | Not Active | Not Active | Not Active | Not Active | Not Active | Not Active | Not Active | Not Active | Not Active | Not Active | Not Active | Not Active | Not Active | Not Active | Not Active | Not Active | IC50 [2]: Not Active; Ki [2]: Not Active; IC50 [5]: Not Active; Ki [5]: Not Active
Nc1nc2c(ncn2COC(CO)CO)c(=O)[nH]1 [GANCICLOVIR] | Not Active | Not Active | Not Active | Not Active | Not Active | Not Active | Not Active | Not Active | Not Active | Not Active | Not Active | Not Active | Not Active | Not Active | Not Active | Not Active | Not Active | Not Active | Not Active | Not Active | IC50 [2]: Not Active; Ki [2]: Not Active; IC50 [5]: Not Active; Ki [5]: Not Active
O=C1CCc2cc(OCCCCc3nnnn3C3CCCCC3)ccc2N1 [CILOSTAZOL] | Not Active | Not Active | Not Active | Not Active | Not Active | Not Active | Not Active | Not Active | Not Active | Not Active | Not Active | Not Active | Not Active | Not Active | Not Active | Not Active | Not Active | Not Active | Not Active | Not Active | pIC50 ([2]; read-out: IC50): 6.57; IC50 [5]: Not Active; Ki [5]: Not Active
COCc1c(C(C)C)nc(C(C)C)c(/C=C/[C@@H](O)C[C@@H](O)CC(=O)O)c1-c1ccc(F)cc1 [CERIVASTATIN] | Not Active | Not Active | Not Active | Not Active | Not Active | Not Active | Not Active | Not Active | Not Active | Not Active | Not Active | Not Active | Not Active | Not Active | Not Active | Not Active | Not Active | Not Active | Not Active | Not Active | IC50 [2]: Not Active; Ki [2]: Not Active; IC50 [5]: Not Active; Ki [5]: Not Active
CCOC(=O)OC(C)OC1=C(C(=O)Nc2ccccn2)N(C)S(=O)(=O)c2ccccc21 (stereo not drawn) [AMPIROXICAM] | Not Active | Not Active | Not Active | Not Active | Not Active | Not Active | Not Active | Not Active | Not Active | Not Active | Not Active | Not Active | Not Active | Not Active | Not Active | Not Active | Not Active | Not Active | Not Active | Not Active | IC50 [2]: Not Active; Ki [2]: Not Active; IC50 [5]: Not Active; Ki [5]: Not Active
